Source: US20210015793A1, “COMPOUNDS FOR TREATING CNS- AND NEURODEGENERATIVE DISEASES” (ETH ZURICH, priority 2018, published 2021)
Entries after “also recorded” stand apart in the source; their conditions may differ.

Assays:
[1] = tested on: female B6 mice; assay: Aging-induced decrease in fertility in female B6 mice; assay type: in vivo, mouse; details: 8 mg/kg/d in drinking water from 3 to 21 months of age, vs untreated controls
Experimental: (A,B) Treatment of B6 mice with Compound-1 (A) and Compound-1F (B) at a daily dose of 8 mg/kg/d in drinking water was started at an age of 3 months and continued until the end of the observation period at 21 months. The age of the male breeder(s) was <10 months. The number of offspring per month is given (±s.d.; n=5; p=0.0167 for Compound-1, and p=0.0032 for Compound-1F compared to untreated controls; unpaired, two-tailed Student's t-test).

[2] = tested on: Tg2576 AD mice; assay: Hippocampal neuronal cell bodies by direct binding assay with [125I]-labeled anti-NeuN antibody, Tg2576 mice subjected to CUMS; assay type: in vivo, mouse; details: 15-month-old Tg2576 mice, 3 months of CUMS with treatment, vs untreated stressed controls
Text: For a genetic model of familial AD (FAD), Tg2576 mice (Taconic Biosciences, Rensselaer, N.Y., USA) were used with neuron-specific overexpression of human APPSwe, i.e the Swedish mutation of APP695 isolated from a Swedish family with FAD featuring the double mutation K670N/M671L (Hsiao et al., Science 274, 99-103 (1996)). As a genetic model of tauopathy, the Tg-TauP301L mice (Model 2508, Taconic Biosciences, Rensselaer, N.Y., USA) with neuron-specific expression of the most common FTDP-17 (frontotemporal dementia and parkinsonism linked to chromosome 17) mutation (Lewis et al., Nature Genetics 25, 402-405 (2000)) were used. […]
Neuronal cell loss and hyperphosphorylated PHF Tau were determined in hippocampi of 15 months-old Tg2576 mice, which were treated without or with Compound-1 and Compound-4 for three months during the neurodegeneration-enhancing CUMS (chronic unpredictable mild stress) protocol. Neuronal cell loss was determined with crude homogenates of dissected hippocampi by direct binding assay with the neuron-specific [125]-labeled anti-NeuN antibody (MAB377, clone A60, EMD Millipore, Merck KGaA, Darmstadt, Germany). Similarly, the neuronal cell loss-causing PHF tau hyperphosphorylation was quantified with [125]-labeled AT8 antibody. […]

SMILES	female fertility (number of offspring per month) [1]	hippocampal neuronal loss (anti-NeuN antibody binding) [2]
O=C(C1=C(O)C(c2ccccc2)N(c2ccc3c(c2)OCO3)C1=O)C1CC1 (stereo not shown) [Compound-1, 1-(1,3-benzodioxol-5-yl)-4-(cyclopropane-carbonyl)-3-hydroxy-2-phenyl-2H-pyrrol-5-one]	retarded aging-induced decrease in fertility	retarded hippocampal neuronal loss; also recorded: significantly retarded the loss of hippocampal neurons
O=C(C1=C(O)C(c2ccc(F)cc2)N(c2ccc3c(c2)OCO3)C1=O)C1CC1 (stereo not shown) [Compound-1F, 1-(1,3-Benzodioxol-5-yl)-4-(cyclopropanecarbonyl)-2-(4-fluorophenyl)-3-hydroxy-2H-pyrrol-5-one]	retarded aging-induced decrease in fertility	retarded hippocampal neuronal loss
